Drawing on ChEMBL document CHEMBL3244307, “Replacement of the disulfide bond in oxytocin by an amide group. Synthesis and some biological properties of (cyclo-(1-L-aspartic acid,6-L-alpha,beta-diaminopropionic acid))oxytocin” (1978), this text covers Activity for 3 molecules.

Experiment [1] is filed under the species Rattus norvegicus. The experiment can be described thus: Uterotonic activity in rat. The class given is functional.
For the next experiment, the system named is Gallus gallus. In words: Effect on vasodepressor activity in conscious chicken. The class given is functional.
The species entered for experiment [2] is Rattus norvegicus. The experiment can be described thus: Antidiuretic activity in rat. Format: functional, Urine.
Experiment [3] is filed under the species Rattus norvegicus. In words: Effect on pressor response in rat. The class given is functional, organism-based.

SMILES strings stand for the structures. The source made the active and inactive calls. The rule behind the calls is not given here. Where a SMILES comes first, the peptide text is derived from it. Bridges are numbered along the chain shown (N, C = ends). [ ]: non-standard residue; d: D form. ξ: configuration not given here. ξDap = NCC(N)C(=O)O; βAla = NCCC(=O)O

Take `CC[C@H](C)[C@@H]1NC(=O)[C@H](Cc2ccc(O)cc2)NC(=O)[C@@H](N)CSSC[C@@H](C(=O)N2CCC[C@H]2C(=O)N[C@@H](CC(C)C)C(=O)NCC(N)=O)NC(=O)[C@H](CC(N)=O)NC(=O)[C@H](CCC(N)=O)NC1=O` [OXYTOCIN]: the Activity in the experiment listed under Rattus norvegicus [1] was 540 U/mg; in the experiment on Gallus gallus it was 500 U/mg; in the experiment listed under Rattus norvegicus [2] it was 3 U/mg.

Molecule `CC[C@H](C)[C@@H]1NC(=O)[C@H](Cc2ccc(O)cc2)NC(=O)CCNC(=O)C[C@@H](C(=O)N2CCC[C@H]2C(=O)N[C@@H](CC(C)C)C(=O)NCC(N)=O)NC(=O)[C@H](CC(N)=O)NC(=O)[C@H](CCC(N)=O)NC1=O` ([βAla]YIQNDPLG-NH2; lactam N-6) yielded an Activity in the experiment filed under Rattus norvegicus [1] of 1.13 U/mg.

`CC[C@H](C)[C@@H]1NC(=O)[C@H](Cc2ccc(O)cc2)NC(=O)[C@@H](N)CC(=O)NCC(C(=O)N2CCC[C@H]2C(=O)N[C@@H](CC(C)C)C(=O)NCC(N)=O)NC(=O)[C@H](CC(N)=O)NC(=O)[C@H](CCC(N)=O)NC1=O` (stereo partly drawn) (H-DYIQN[ξDap]PLG-NH2; lactam 1-6): in the experiment listed under Rattus norvegicus [3], the outcome was Active. The Activity in the experiment filed under Rattus norvegicus [1] is given as 16 U/mg; in the experiment on Gallus gallus it was 6.6 U/mg; in the experiment filed under Rattus norvegicus [2], 5.6 U/mg.
